Assay results as given in ChEMBL document CHEMBL1795315, “Syntheses of 2-NBDG analogues for monitoring stereoselective uptake of D-glucose” (Bioorg Med Chem Lett, 2011).

Legend:
Format in all cases: ADME
[1] = Drug uptake in C57BL/6J mouse neuronal cytosol at 100 uM after 1 min by confocal microscopy co-treated with 20 uM 2-TRLG
[2] = Drug uptake in C57BL/6J mouse neuronal cytosol at 20 uM after 1 min by confocal microscopy co-treated with 100 uM 2-NBDLG
[3] = Drug uptake in C57BL/6J mouse neuronal cytosol at 20 uM after 1 min by confocal microscopy co-treated with 100 uM 2-NBDG

| Structure (SMILES) | Drug uptake [1] | Drug uptake [2] | Drug uptake [3] |
| --- | --- | --- | --- |
| O=[N+]([O-])c1ccc(N[C@H]2C(O)O[C@H](CO)[C@@H](O)[C@@H]2O)c2nonc12 (stereo partly specified) | Active | – | – |
| O=[N+]([O-])c1ccc(N[C@@H]2C(O)O[C@@H](CO)[C@H](O)[C@H]2O)c2nonc12 (stereo partly specified) | Not Active | – | – |
| O=S(=O)([O-])c1ccc(C2=c3cc4c5c(c3Oc3c2cc2c6c3CCCN6CCC2)CCC[N+]=5CCC4)c(S(=O)(=O)N[C@@H]2C(O)O[C@@H](CO)[C@H](O)[C@H]2O)c1 (stereo partly specified) | – | Active | Not Active |
| O=S(=O)([O-])c1cc(S(=O)(=O)N[C@@H]2C(O)O[C@@H](CO)[C@H](O)[C@H]2O)ccc1C1=c2cc3c4c(c2Oc2c1cc1c5c2CCCN5CCC1)CCC[N+]=4CCC3 (stereo partly specified) | – | Active | Not Active |
